Reference: patent US20210186834A1, “TAHITI VANILLA EXTRACT AND 4-[(1E,3S)-3-ETHENYL-3,7-DIMETHYLOCTA-1,6-DIENYL]PHENOL FOR COMBATTING CUTANEOUS AGEING” (PIERRE FABRE DERMO-COSMETIQUE, priority 2018, published 2021)

Key:
Type in all cases: cell-based
[1] = test system: protein P16; assay: Expression of P16 by immunofluorescence after acute UVA stress on normal human fibroblasts; conditions: bakuchiol 0.5 μg/mL, added 1 h before UVA 60 J/cm^2, sampled 24 h after irradiation, N=3 donors; P=NS versus the non-treated group
Experimental: The biological model used for this study consists of normal human dermis fibroblasts obtained from healthy donors. The fibroblasts are cultured in a standard culture medium for 36 hours, the products to test (vehicle (DMSO), bakuchiol (0.5 μg/ml), vanilla extract (0.05%, p/v) and the combination thereof (same concentrations)) are added to the culture medium one hour before the UVA radiation test. This test consists in a photo-ageing stress: the fibroblasts are irradiated by UVA at a dose of 60 J/cm^2 (Waldmann UVA lamp). A condition without irradiation is also realised. The fibroblasts are next sampled 24 h after irradiation for immunofluorescence analyses. All the experimental conditions are realised with N=3 donors. The fluorescence was quantified using Nikon NIS Element software in order to obtain an average fluorescence per cell and per condition. The treatment of human fibroblasts with acute UVA stress induces a significant increase in the expression of P16, going from 500 AU to almost 1000 AU, P<0.001, versus the non-stimulated condition. […] The statistics are produced using a one way variance analysis (one-way ANOVA) followed by a Dunnett test.

[2] = test system: normal human fibroblasts; assay: Morphological changes of fibroblasts induced by exposure to UVA; conditions: bakuchiol 0.5 μg/ml, vanilla extract 0.05% (p/v), combination at the same concentrations; UVA 60 J/cm^2
Experimental: (§1) The fibroblasts are cultured in a standard culture medium for 36 hours, the products to test (vehicle (DMSO), bakuchiol (0.5 μg/ml), vanilla extract (0.05%, p/v) and the combination thereof (same concentrations)) are added to the culture medium one hour before the UVA radiation test. This test consists in a photo-ageing stress: the fibroblasts are irradiated by UVA at a dose of 60 J/cm^2 (Waldmann UVA lamp). A condition without irradiation is also realised. The fibroblasts are next sampled 24 h after irradiation for immunofluorescence analyses. All the experimental conditions are realised with N=3 donors. The fluorescence was quantified using Nikon NIS Element software in order to obtain an average fluorescence per cell and per condition. The protocol used is rigorously the same as that described in example 1. The products tested are the same, the concentrations also. The expression of IL8 is then quantified by immunofluorescence. The treatment of human fibroblasts with acute UVA stress induces a significant increase in the expression of IL8, going from 100% to 5300% (P<0.05) compared to the condition without irradiation. In addition, it appears that the treatment by UVA induces important morphological changes in the fibroblasts, going from a star-shaped model to a spindle-shaped model.

[3] = test system: IL8; assay: Expression of IL8 by immunofluorescence after acute UVA stress on normal human fibroblasts; conditions: bakuchiol 0.5 μg/ml, UVA 60 J/cm^2, 24 h after irradiation; P<0.05 versus non-treated conditions
Experimental: as §1

`C=C[C@@](C)(/C=C/c1ccc(O)cc1)CCC=C(C)C` [bakuchiol, 4-[(1E,3S)-3-ethenyl-3,7-dimethylocta-1,6-dienyl]phenol] was tested, and the “reduction of the expression of P16 following irradiation” value [1] was −44.4%, the “effect on morphological changes (star-shaped to spindle-shaped) induced by exposure to UVA” value [2] was “prevention of the morphological changes” and the “decrease of the expression of IL8 following exposure to UVA” value [3] was 88.3%.
